Consider three molecules from US11331020B2 (TRUSTEES OF BOSTON UNIVERSITY, priority 2020, dated 2022).

Experiment [1] deals with T1, NicA2 (Pseudomonas putida, UniProt F8G0P2, N462Y/W427Y).
T1 construct: poly-histidine; made in house; host or cells: E. coli BL21 (DE3)
It is filed as biochemical, Pseudomonas putida S16. Conditions: FIG. 17C (N462Y/W427Y mutant), FIG. 10D. The procedure:
(§1) Chronoamperometric responses were recorded overtime, with a potential −0.2 V (versus Ag/AgCl). At the beginning of the experiment, 30 μL 1×DPBS was added to the biosensor, followed by an addition of 30 μL nicotine solution at predefined time point. To evaluate the selectivity of the sensor chronoamperometric responses to nicotine were measured in the presence of the common interferents at relevant physiological concentrations in sweat (see e.g., Table 4). Addition of 30 μL 200 μM nicotine solution to 30 μL mixture was performed at a predefined time point and the current was recorded over time. Similar experiments were performed to evaluate the selectivity of the sensor to cotinine. Current was recorded where 30 μL 200 μM nicotine solution was added to 30 μL cotinine solutions.
(§2) Chronoamperometric responses were recorded at −0.2 V vs. a Ag/AgCl reference electrode.

In experiment [2] the target is T2, NicA2 (Pseudomonas putida, UniProt F8G0P2).
T2 construct: poly-histidine; made in house; host or cells: E. coli BL21 (DE3)
It counts as biochemical, Pseudomonas putida S16. Conditions: for effect on the response to nicotine: 200 μM nicotine solution added. The procedure:
as §1, §2

The nature of experiment [3]: Activity of NicA2 mutants versus wild type NicA2. Conditions: compared to wild type and other NicA2 mutants. It counts as biochemical. An excerpt: In some embodiments, the size of the working electrode is in the range of 5-8 π mm^2, or 8-10π mm^2, or 10-12π mm^2, or 12-15π mm^2, or greater than 15π mm^2.

Where two headings read alike, the source gives them in different places.

T2 sequence (F8G0P2 39-482): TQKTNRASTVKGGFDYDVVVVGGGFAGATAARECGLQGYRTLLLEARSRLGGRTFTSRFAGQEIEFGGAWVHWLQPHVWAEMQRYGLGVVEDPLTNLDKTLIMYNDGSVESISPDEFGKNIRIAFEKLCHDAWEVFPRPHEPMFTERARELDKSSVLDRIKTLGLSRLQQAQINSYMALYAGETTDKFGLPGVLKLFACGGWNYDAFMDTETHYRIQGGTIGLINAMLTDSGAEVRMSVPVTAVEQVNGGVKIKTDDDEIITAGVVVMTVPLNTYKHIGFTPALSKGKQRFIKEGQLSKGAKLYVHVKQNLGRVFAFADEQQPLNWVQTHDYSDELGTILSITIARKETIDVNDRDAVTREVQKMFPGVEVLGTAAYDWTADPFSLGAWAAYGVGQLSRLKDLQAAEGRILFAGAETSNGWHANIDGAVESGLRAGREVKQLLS

Take `CN1C(=O)CC[C@H]1c1cccnc1` [cotinine]: on NicA2 [1], the “current produced by NicA2 with the analyte” value is listed as “did not produce a current”. The “effect on the response to nicotine” value is on record as “minimally affected the nicotine response” on NicA2 [2] (chronoamperometry) and “minimal effect upon the nicotine response” at NicA2 [2] (chronoamperometry, listed as Cotinine).
For `c1cncc(C2=NCCC2)c1` [myosmine], the reduction of signal result at NicA2 [2] (added during a chronoamperometric experiment with nicotine) was “approximately 50%”. The “response from the substance alone” value at NicA2 [2] (chronoamperometry, no nicotine) was “Minimal responses”.

B1: N462Y/W427Y: mutant NicA2 enzyme, SEQ ID NO: 4 (protein)
chain: MSDKTKTNEGFSRRSFIGSAAVVTAGVAGLGAIDAASATQKTNRASTVKGGFDYDVVVVGGGFAGATAARECGLQGYRTLLLEARSRLGGRTFTSRFAGQEIEFGGAWVHWLQPHVWAEMQRYGLGVVEDPLTNLDKTLIMYNDGSVESISPDEFGKNIRIAFEKLCHDAWEVFPRPHEPMFTERARELDKSSVLDRIKTLGLSRLQQAQINSYMALYAGETTDKFGLPGVLKLFACGGWNYDAFMDTETHYRIQGGTIGLINAMLTDSGAEVRMSVPVTAVEQVNGGVKIKTDDDEIITAGVVVMTVPLNTYKHIGFTPALSKGKQRFIKEGQLSKGAKLYVHVKQNLGRVFAFADEQQPLNWVQTHDYSDELGTILSITIARKETIDVNDRDAVTREVQKMFPGVEVLGTAAYDWTADPFSLGAYAAYGVGQLSRLKDLQAAEGRILFAGAETSNGWHAYIDGAVESGLRAGREVKQLLSLEHHHHHH
Turning to B1, the “oxidation activity of NicA2 mutant” value in experiment [3] is given as “increased oxidative activity”.
